According to patent publication US8211646B1, “Methods of treating ovarian cancer by modulating SnoN” (University of South Florida, priority 2008, dated 2012):

Key:
SnoN RNA = experiment: qPCR of SnoN RNA levels in ovarian cell lines; type: cell-based; conditions: 5 μM As2O3, 18 hours
Description: RNA was isolated using the RNeasy Mini Kit (Qiagen, Valencia, Calif.) from normal, benign, stage I-IV ovarian patient samples and quantitative PCR was performed. A one-step RT-PCR Taqman master mix from Applied Biosystems (Foster City, Calif.) and primers for genes in the 3q26.2 amplicon were obtained using Genebank sequences as well as from Assays on Demand (Hs00180524_m1 (SnoN/SkiL)), with the following primers and probe sets.
Primers/probe sequences for SnoN (Hs00180524_m1), TGFβRII (Hs00234253_m1), and LC3 (Hs00261291_m1) were obtained from Applied Biosystems (Assays by Design).
mRNA levels were determined using the One-Step-Plus Applied Biosystems Detection System or ABI PRISM 7700 Sequence Detection System using β-actin as a reference. PCR conditions were as follows: stage I: 48° C. for 30 min; stage II: 95° C. for 10 min; stage III: [40 cycles] 95° C. for 15 s followed by 60° C. for 1 min Using the correlative method, RNA-fold change in expression was calculated as Ct of gene—Ct of β-actin to generate ΔCt from which ΔCt of the normal sample was subtracted. These values were then converted to log2 values.
The clinical inhibitors As2O3, geldanamycin (17-AAG) (dissolved in dimethylsulfoxide [DMSO]), and MG132 (dissolved in DMSO) were obtained from Sigma-Aldrich (St. Louis, Mo.), Fisher Scientific (Pittsburgh, Pa.), and Alexis Biochemicals (Farmingdale, N.Y.), respectively. N-acetyl-L-cysteine (NAC; dissolved in media) and Bortezomib (PS-341; dissolved in DMSO) were obtained from Fisher Scientific. 3-Methyladenine (3-MA; dissolved in media) was obtained from MP Biomedicals (Solon, Ohio). Tiron (4,5-Dihydroxy-1,3-benzenedisulfonic acid, dissolved in media) was obtained from Fisher Scientific. zVAD-fmk (dissolved in DMSO) and bafilomycin A (dissolved in DMSO) was obtained from Axxora LLC (San Diego, Calif.). […] After the appropriate incubation time (6 or 18 hours), cell lysates were collected, protein quantified, and SDS-PAGE/western analysis was performed. In addition, for selected studies, RNA was isolated, quantified, and used for qPCR analysis.

SnoN = experiment: Western analysis of SnoN protein levels; type: cell-based; conditions: for concentration at which induction of SnoN occurred: 18 hours
Description: Proteins were resolved on an 8%, 12%, or 15% SDS-PAGE gel (as appropriate) and electrophoretically transferred to polyvinyldifluoride (PVDF) membranes. After blocking with 5% (w/v) milk in TBST (Tris-Buffered Saline containing 0.1% Tween-20) for one hour at room temperature, membranes were incubated with primary antibodies (at appropriate dilution) overnight at 4° C., followed by extensive washing and incubation for 1 hour with the appropriate horseradish peroxidase-conjugated secondary antibodies (BioRad, Hercules, Calif.). Blots were washed extensively. A rabbit polyclonal EVI1 antibody was obtained (1:3000 dilution, St. Jude's Children's Hospital, Memphis, Tenn.). SnoN rabbit polyclonal (1:1000 dilution), PML, and p21 SMURF2 rabbit polyclonal (1:500 dilution), MRP1 mouse monoclonal (1:500 dilution) and GAPDH mouse monoclonal (1:250 dilution) antibodies were obtained from Santa Cruz Biotechnology (Santa Cruz, Calif.). TGFβRII rabbit polyclonal (1:1000 dilution) antibody was obtained from Strategic Diagnostics (Newark, Del.). Smad2/3 rabbit polyclonal (1:1000 dilution), Beclin-1 rabbit polyclonal (1:1000 dilution), AKT rabbit polyclonal (1:1000 dilution), TAK1 rabbit polyclonal (1:1000 dilution), PARP rabbit polyclonal (1:1000 dilution), Beclin-1 rabbit polyclonal (1:1000 dilution), caspase-3 rabbit polyclonal (1:1000) which detects the pro-caspase form, and ATG5 rabbit polyclonal (1:1000 dilution), LC3-II rabbit polyclonal (1:1000 dilution) antibodies were obtained from Cell Signaling Technology (Danvers, Mass.). The HSP27 mouse monoclonal (1:1000 dilution) antibody was obtained from Stressgen (Ann Arbor, Mich.). Blots were developed using chemiluminescence substrates (Amersham Piscataway, N.J. or BioRad, Hercules, Calif.). Monoclonal PAI-1 antibody was obtained from BD Pharmingen. PSMAD2, total SMAD2/3, p-ERK, p-AKT, and total AKT antibodies were obtained from Cell Signaling Technology. A monoclonal antibody against Arkadia was obtained from Abnova (Taiwan).
Densitometric analysis was performed using the HP Scanjet 5590 and the Image J program (Image Processing and Analysis in Java, NIH Image Software). Bands were selected and the intensity values were normalized to those for GAPDH. The values are presented as fold-changes relative to control siRNA treated cells.
The clinical inhibitors As2O3, geldanamycin (17-AAG) (dissolved in dimethylsulfoxide [DMSO]), and MG132 (dissolved in DMSO) were obtained from Sigma-Aldrich (St. Louis, Mo.), Fisher Scientific (Pittsburgh, Pa.), and Alexis Biochemicals (Farmingdale, N.Y.), respectively. N-acetyl-L-cysteine (NAC; dissolved in media) and Bortezomib (PS-341; dissolved in DMSO) were obtained from Fisher Scientific. 3-Methyladenine (3-MA; dissolved in media) was obtained from MP Biomedicals (Solon, Ohio). Tiron (4,5-Dihydroxy-1,3-benzenedisulfonic acid, dissolved in media) was obtained from Fisher Scientific. zVAD-fmk (dissolved in DMSO) and bafilomycin A (dissolved in DMSO) was obtained from Axxora LLC (San Diego, Calif.). Bovine catalase was obtained from Sigma-Aldrich. HBED and Mn TBAP was obtained from ENZO Life Sciences (Farmingdale, N.Y.). Ovarian cells were plated in 6-well plates at 250,000 cells per well and grown in complete medium. […] For control cells, DMSO (a final concentration of <0.5%) was added to compare appropriately to drugs dissolved in DMSO. After the appropriate incubation time (6 or 18 hours), cell lysates were collected, protein quantified, and SDS-PAGE/western analysis was performed. In addition, for selected studies, RNA was isolated, quantified, and used for qPCR analysis.

Substance: Arsenic trioxide [As2O3]
- effect on SnoN RNA (SnoN RNA): little effect
- SnoN/SkiL protein levels (SnoN; HEY and OVCA429, 18 hours, increasing doses): significantly increased
- concentration at which induction of SnoN occurred (SnoN; HEY and SKOV3 cells): > 25 µM
- time of As2O3 treatment at which induction of SnoN was seen (SnoN; HEY, time course): 9 h
- concentration at which induction of SnoN occurred (SnoN; T80 cells): 10 µM
